According to patent US7183385B2, “Phospho-specific antibodies to Flt3 and uses thereof” (Cell Signaling Technology, Inc., priority 2002, dated 2007):

Target: T1, constitutively active Flt3 in EOL-1 cells (Homo sapiens, UniProt P36888)
T1 construct: expresses an endogenous, constitutively active Flt3; endogenous in cells; host or cells: EOL-1 hematopoietic cell line
T1 sequence (P36888 27-993): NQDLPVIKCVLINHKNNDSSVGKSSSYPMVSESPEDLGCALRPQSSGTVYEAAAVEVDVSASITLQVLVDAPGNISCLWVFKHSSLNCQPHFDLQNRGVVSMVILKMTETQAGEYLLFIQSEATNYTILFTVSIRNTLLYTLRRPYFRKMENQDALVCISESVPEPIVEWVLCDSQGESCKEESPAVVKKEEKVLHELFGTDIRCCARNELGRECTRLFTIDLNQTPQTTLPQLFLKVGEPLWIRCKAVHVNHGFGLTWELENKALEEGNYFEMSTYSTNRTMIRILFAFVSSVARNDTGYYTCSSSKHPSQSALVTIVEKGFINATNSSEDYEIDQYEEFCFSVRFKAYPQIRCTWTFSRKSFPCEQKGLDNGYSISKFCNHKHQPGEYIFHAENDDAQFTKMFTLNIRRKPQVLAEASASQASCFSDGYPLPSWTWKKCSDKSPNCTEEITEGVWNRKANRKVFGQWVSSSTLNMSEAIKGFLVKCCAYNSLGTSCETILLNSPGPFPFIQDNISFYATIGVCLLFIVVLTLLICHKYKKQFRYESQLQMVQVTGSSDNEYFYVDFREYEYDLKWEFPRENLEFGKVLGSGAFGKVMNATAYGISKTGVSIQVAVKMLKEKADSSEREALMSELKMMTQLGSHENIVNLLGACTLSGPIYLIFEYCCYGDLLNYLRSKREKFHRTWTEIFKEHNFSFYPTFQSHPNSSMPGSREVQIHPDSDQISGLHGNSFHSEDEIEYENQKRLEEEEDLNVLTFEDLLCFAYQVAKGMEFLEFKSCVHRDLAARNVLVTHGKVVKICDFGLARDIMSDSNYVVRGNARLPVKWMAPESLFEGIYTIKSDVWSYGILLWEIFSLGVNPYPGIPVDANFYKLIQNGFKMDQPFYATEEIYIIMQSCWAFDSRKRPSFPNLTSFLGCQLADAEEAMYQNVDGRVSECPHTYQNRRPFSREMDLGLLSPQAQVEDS
Test: Flt3 inhibitor effect on phospho-Flt3(Tyr591) staining in EOL-1 cells by flow cytometry
Assay type: cell-based
Details: serum-starved EOL-1 cells, inhibitor 4 hours at 37° C.; FIG. 6
Protocol: Flt3(Tyr591) phosphospecific monoclonal antibody CST #25-54 was used in flow cytometry to detect phospho-Flt3(Tyr591) in the EOL-1 hematopoietic cell line that expresses an endogenous, constitutively active Flt3. Serum-starved cells were incubated with or without the small molecule Flt3 inhibitor AG1296 for 4 hours at 37° C. The cells then were fixed with 2% paraformaldehyde for 10 minutes at 37° C. followed by cell permeabilization 90% with methanol for 30 minutes on ice. The fixed cells were then stained with the Alexa 488-conjugated Flt3 primary antibody for 1 hour at room temperature. The cells were then analyzed on a Beckman Coulter EPICS-XL flow cytometer.

## COc1cc2ncc(-c3ccccc3)nc2cc1OC [AG1296]
  Activity against Flt3 (in words): active against Flt3
  Population of cells showing less staining with the phospho-Flt3(Tyr591) antibody in the presence of the drug: approximately 30 % of the total cells
